From patent US8796001B2, “Metalloenzyme inhibitor compounds” (Viamet Pharmaceuticals, Inc., priority 2011, dated 2014)

system: Puccinia recondita tritici = Puccinia triticina (PUCCRT); assay: Fungicidal activity vs. leaf rust on wheat plants; type: in vivo; conditions: wheat (Yuma) sprayed at 50 ppm, inoculated the following day, rated 7-9 days later, read-out: Puccinia Rating (% Disease Control @ 50 ppm)
Excerpt: D. Evaluation of Fungicidal Activity vs. Leaf Rust (Causal Agent Puccinia Recondita Tritici=Puccinia Triticina; Bayer Code PUCCRT)
Each pot contained 3-8 seedlings. These plants were sprayed until wet with the formulated test compounds. The compounds were formulated at 50 ppm in 10 vol. % acetone plus 90 vol. % Triton X water (deionized water 99.99 wt %+0.01 wt % Triton X100), giving a “formulated test compound.” Formulated test compounds were applied to plants using a turn table sprayer fitted with two opposing air atomization nozzles which delivered approximately 1500 L/ha of spray volume. On the following day, the leaves were inoculated with an aqueous spore suspension of Puccinia recondita tritici and the plants were kept in high humidity overnight to permit spores to germinate and infect the leaf. The plants were then transferred to a greenhouse until disease developed on untreated control plants. Disease severity was evaluated 7-9 days later, depending on the speed of disease development.
In each case of Table 3, the Puccinia rating scale is as follows: […]

Row | SMILES | pest or weed control at 50 ppm [%]
1 | N#Cc1ccc(Oc2ccc(C(F)(F)C(O)(Cn3cnnn3)c3ccc(F)cc3F)nc2)c(F)c1 (centres unmarked) [Compound 89, 4-((6-(2-(2,4-Difluorophenyl)-1,1-difluoro-2-hydroxy-3-(1H-tetrazol-1-yl)propyl)pyridin-3-yl)oxy)-3-fluorobenzonitrile] | 80 to 100
2 | OC(Cn1cnnn1)(c1ccc(F)cc1F)C(F)(F)c1ccc(OCc2ccnc(Cl)c2)cn1 (centres unmarked) [Compound 117, 1-(5-((2-chloropyridin-4-yl)methoxy)pyridin-2-yl)-2-(2,4-difluorophenyl)-1,1-difluoro-3-(1H-tetrazol-1-yl)propan-2-ol] | 80 to 100
3 | N#Cc1ccc(Oc2ccc(C(F)(F)C(O)(Cn3cnnn3)c3ccc(F)cc3F)nc2)cc1F (centres unmarked) [Compound 17, 4-((6-(2-(2,4-Difluorophenyl)-1,1-difluoro-2-hydroxy-3-(1H-tetrazol-1-yl)propyl)pyridin-3-yl)oxy)-2-fluorobenzonitrile] | 80 to 100
4 | N#Cc1ccc(Oc2ccc(C(F)(F)C(O)(Cn3cnnn3)c3ccc(F)cc3F)nc2)nc1 (centres unmarked) [Compound 93, 6-((6-(2-(2,4-difluorophenyl)-1,1-difluoro-2-hydroxy-3-(1H-tetrazol-1-yl)propyl)pyridin-3-yl)oxy)nicotinonitrile] | 80 to 100
5 | N#Cc1cc(COc2ccc(C(F)(F)C(O)(Cn3cnnn3)c3ccc(F)cc3F)nc2)ccc1F (centres unmarked) [Compound 65, 5-(((6-(2-(2,4-Difluorophenyl)-1,1-difluoro-2-hydroxy-3-(1H-tetrazol-1-yl)propyl)pyridin-3-yl)oxy)methyl)-2-fluorobenzonitrile] | 80 to 100
6 | OC(Cn1cnnn1)(c1ccc(F)cc1F)C(F)(F)c1ccc(Oc2ncc(C(F)(F)F)cn2)cn1 (centres unmarked) [Compound 105, 2-(2,4-difluorophenyl)-1,1-difluoro-3-(1H-tetrazol-1-yl)-1-(5-((5-(trifluoromethyl)pyrimidin-2-yl)oxy)pyridin-2-yl)propan-2-ol] | 80 to 100
7 | OC(Cn1cnnn1)(c1ccc(F)cc1F)C(F)(F)c1ccc(OCc2cccc(C(F)(F)F)c2)cn1 (centres unmarked) [Compound 26, 2-(2,4-Difluorophenyl)-1,1-difluoro-3-(1H-tetrazol-1-yl)-1-(5-((3-(trifluoromethyl)benzyl)oxy)pyridin-2-yl)propan-2-ol] | 80 to 100
8 | OC(Cn1cnnn1)(c1ccc(F)cc1F)C(F)(F)c1ccc(Oc2ccc(OC(F)(F)F)cc2)cn1 (centres unmarked) [Compound 76, 2-(2,4-Difluorophenyl)-1,1-difluoro-3-(1H-tetrazol-1-yl)-1-(5-(4-(trifluoromethoxy)phenoxy)pyridin-2-yl)propan-2-ol] | 80 to 100
9 | N#Cc1ccc(Oc2ccc(C(F)(F)C(O)(Cn3cnnn3)c3ccc(F)cc3F)nc2)cc1 (centres unmarked) [Compound 5, 4-(6-(2-(2,4-Difluorophenyl)-1,1-difluoro-2-hydroxy-3-(1H-tetrazol-1-yl)propyl)pyridin-3-yloxy)benzonitrile] | 80 to 100
10 | OC(Cn1cnnn1)(c1ccc(F)cc1F)C(F)(F)c1ccc(OCc2ccc(OC(F)(F)F)cc2)cn1 (centres unmarked) [Compound 21, 2-(2,4-Difluorophenyl)-1,1-difluoro-3-(1H-tetrazol-1-yl)-1-(5-((4-(trifluoromethoxy)benzyl)oxy)pyridin-2-yl)propan-2-ol] | 80 to 100
11 | OC(Cn1cnnn1)(c1ccc(F)cc1F)C(F)(F)c1ccc(Oc2ccc(F)cc2)cn1 (centres unmarked) [Compound 6, 2-(2,4-Difluorophenyl)-1,1-difluoro-1-(5-(4-fluorophenoxy)pyridin-2-yl)-3-(1H-tetrazol-1-yl)propan-2-ol] | 80 to 100
12 | OC(Cn1cncn1)(c1ccc(F)cc1F)C(F)(F)c1ccc(OCc2cccc(F)c2F)cn1 (centres unmarked) [Compound 45, 1-(5-((2,3-Difluorobenzyl)oxy)pyridin-2-yl)-2-(2,4-difluorophenyl)-1,1-difluoro-3-(1H-1,2,4-triazol-1-yl)propan-2-ol] | 80 to 100
13 | OC(Cn1cnnn1)(c1ccc(F)cc1F)C(F)(F)c1ccc(OCc2ccccc2F)cn1 (centres unmarked) [Compound 46, 2-(2,4-Difluorophenyl)-1,1-difluoro-1-(5-((2-fluorobenzyl)oxy)pyridin-2-yl)-3-(1H-tetrazol-1-yl)propan-2-ol] | 80 to 100
14 | OC(Cn1cnnn1)(c1ccc(F)cc1F)C(F)(F)c1ccc(Oc2ccc(Cl)cn2)cn1 (centres unmarked) [Compound 95, 1-(5-((5-chloropyridin-2-yl)oxy)pyridin-2-yl)-2-(2,4-difluorophenyl)-1,1-difluoro-3-(1H-tetrazol-1-yl)propan-2-ol] | 80 to 100
15 | OC(Cn1cnnn1)(c1ccc(F)cc1F)C(F)(F)c1ccc(Oc2ccc(C(F)(F)F)cc2)cn1 (centres unmarked) [Compound 75, 2-(2,4-Difluorophenyl)-1,1-difluoro-3-(1H-tetrazol-1-yl)-1-(5-(4-(trifluoromethyl)phenoxy)pyridin-2-yl)propan-2-ol] | 80 to 100
16 | OC(Cn1cnnn1)(c1ccc(F)cc1F)C(F)(F)c1ccc(OCc2ccc(Cl)cc2F)cn1 (centres unmarked) [Compound 1, 1-(5-(4-Chloro-2-fluorobenzyloxy)pyridin-2-yl)-2-(2,4-difluorophenyl)-1,1-difluoro-3-(1H-tetrazol-1-yl)propan-2-ol] | 80 to 100
17 | N#Cc1cnc(Oc2ccc(C(F)(F)C(O)(Cn3cnnn3)c3ccc(F)cc3F)nc2)s1 (centres unmarked) [Compound 107, 2-((6-(2-(2,4-difluorophenyl)-1,1-difluoro-2-hydroxy-3-(1H-tetrazol-1-yl)propyl)pyridin-3-yl)oxy)thiazole-5-carbonitrile] | < 40
18 | COc1ccc(C(F)(F)C(O)(Cn2cnnn2)c2ccc(F)cc2F)nc1 (centres unmarked) [Compound 8, 2-(2,4-Difluorophenyl)-1,1-difluoro-1-(5-methoxypyridin-2-yl)-3-(1H-tetrazol-1-yl)propan-2-ol] | 80 to 100
19 | OC(Cn1cnnn1)(c1ccc(F)cc1F)C(F)(F)c1ccc(OCc2ccc(Cl)c(F)c2)cn1 (centres unmarked) [Compound 27, 1-(5-((4-Chloro-3-fluorobenzyl)oxy)pyridin-2-yl)-2-(2,4-difluorophenyl)-1,1-difluoro-3-(1H-tetrazol-1-yl)propan-2-ol] | 80 to 100
20 | OC(Cn1cnnn1)(c1ccc(F)cc1F)C(F)(F)c1ccc(OCc2ccc(C(F)(F)F)cc2F)cn1 (centres unmarked) [Compound 24, 2-(2,4-Difluorophenyl)-1,1-difluoro-1-(5-((2-fluoro-4-(trifluoromethyl)benzyl)oxy)pyridin-2-yl)-3-(1H-tetrazol-1-yl)propan-2-ol] | 80 to 100
21 | OC(Cn1cnnn1)(c1ccc(F)cc1F)C(F)(F)c1ccc(OCC(F)(F)c2ccc(Cl)cc2)cn1 (centres unmarked) [Compound 122, 1-(5-(2-(4-chlorophenyl)-2,2-difluoroethoxy)pyridin-2-yl)-2-(2,4-difluorophenyl)-1,1-difluoro-3-(1H-tetrazol-1-yl)propan-2-ol] | 80 to 100
22 | N#Cc1ccc(COc2ccc(C(F)(F)C(O)(Cn3ncnn3)c3ccc(F)cc3F)nc2)cc1 (centres unmarked) [Compound 83, 4-(((6-(2-(2,4-Difluorophenyl)-1,1-difluoro-2-hydroxy-3-(2H-tetrazol-2-yl)propyl)pyridin-3-yl)oxy)methyl)benzonitrile] | 40 to 59
23 | OC(Cn1cnnn1)(c1ccc(F)cc1F)C(F)(F)c1ccc(Oc2ccc(F)c(F)c2)cn1 (centres unmarked) [Compound 86, 1-(5-(3,4-Difluorophenoxy)pyridin-2-yl)-2-(2,4-difluorophenyl)-1,1-difluoro-3-(1H-tetrazol-1-yl)propan-2-ol] | 80 to 100
24 | OC(Cn1cnnn1)(c1ccc(F)cc1F)C(F)(F)c1ccc(OCC(F)c2ccccc2)cn1 (centres unmarked) [Compound 123, 2-(2,4-difluorophenyl)-1,1-difluoro-1-(5-(2-fluoro-2-phenylethoxy)pyridin-2-yl)-3-(1H-tetrazol-1-yl)propan-2-ol] | 80 to 100
25 | N#Cc1cccc(COc2ccc(C(F)(F)C(O)(Cn3cnnn3)c3ccc(F)cc3F)nc2)c1F (centres unmarked) [Compound 67, 3-(((6-(2-(2,4-Difluorophenyl)-1,1-difluoro-2-hydroxy-3-(1H-tetrazol-1-yl)propyl)pyridin-3-yl)oxy)methyl)-2-fluorobenzonitrile] | 80 to 100

system: Septoria tritici (ATCC 26517); assay: Minimum Inhibitory Concentration (MIC) vs. Septoria tritici; type: cell-based; conditions: Zymoseptoria tritici, ATCC26517, 168 h; S. tritici ATCC 26517; 50% growth reduction; 7 days at 22 °C; read-out: Septoria Rating (MIC)
Protocol: C. Minimum Inhibitory Concentration (MIC) vs. Septoria Tritici Compounds were assessed for their ability to inhibit the growth of a common strain of the fungal plant pathogen Septoria tritici (ATCC 26517) using a procedure based on a Clinical and Laboratory Standards Institute (CLSI) microdilution assay protocol for filamentous fungi. Stock solutions of the test compounds and standards were prepared in DMSO at 6400 μg/mL. Each stock solution was used to prepare a 2-fold dilution series ranging from 16 to 0.016 μg/mL (total of 11 compound concentrations) in RPMI-1640 (Roswell Park Memorial Institute) medium containing 3-(N-morpholino)propanesulfonic acid (MOPS) buffer and 2% DMSO. A 100 μL aliquot of the dilutions was added to columns 1 (16 μg/mL compound) through 11 (0.016 μg/mL compound) of a 96-well microtiter plate. This format was replicated in a second row of the microtiter plate. Thus, each microtiter plate could include 11 concentrations of four test or control compounds replicated twice. A 100 μL aliquot of RPMI-1640/MOPS/2% DMSO medium was added to column 12 (no compound control) of the microtiter plate. A fresh culture of S. tritici was used to prepare a solution of approximately 5×10^4 colony-forming units per milliliter (cfu/mL) in RPMI/MOPS medium without DMSO. A 100 μL aliquot of this solution was added to all 96 wells in the microtiter plate. […]

Row | MIC [mg/L] | SMILES
26 | ≤ 0.5 | CC#CCOc1ccc(C(F)(F)C(O)(Cn2cnnn2)c2ccc(F)cc2F)nc1 (centres unmarked) [Compound 32, 1-(5-(But-2-yn-1-yloxy)pyridin-2-yl)-2-(2,4-difluorophenyl)-1,1-difluoro-3-(1H-tetrazol-1-yl)propan-2-ol]
